# Laboratory results from the NIST ThermoML archive (doi:10.1016/j.fluid.2005.08.001).
# Numbers after ± are expanded uncertainties.
# Legend:
# [1] = 298.15 K; 101.33 kPa; Liquid
# [2] = excess molar enthalpy (molar enthalpy of mixing); xn = mol fraction of the nth substance listed; settings: 298.15 K, 101.33 kPa, Liquid, Flow calorimetry
compound,measurement,setting,value
CCCCO [butan-1-ol],mass density,[1],805.74 ± 0.35 kg/m3
CCO [ethanol],mass density,[1],785.07 ± 0.33 kg/m3
CCCCCC [hexane],mass density,[1],654.9 ± 0.47 kg/m3
CCCCCC [hexane] + CCCCO,excess molar enthalpy,[2]; x2 = 0.0199,0.0527 ± 0.00167 kcal/mol
same,excess molar enthalpy,[2]; x2 = 0.0399,0.0685 ± 0.00215 kcal/mol
same,excess molar enthalpy,[2]; x2 = 0.05,0.0738 ± 0.00232 kcal/mol
same,excess molar enthalpy,[2]; x2 = 0.06,0.0783 ± 0.00239 kcal/mol
same,excess molar enthalpy,[2]; x2 = 0.0799,0.087 ± 0.00263 kcal/mol
same,excess molar enthalpy,[2]; x2 = 0.0999,0.0943 ± 0.00287 kcal/mol
same,excess molar enthalpy,[2]; x2 = 0.1499,0.11 ± 0.00335 kcal/mol
same,excess molar enthalpy,[2]; x2 = 0.2,0.123 ± 0.00382 kcal/mol
same,excess molar enthalpy,[2]; x2 = 0.25,0.129 ± 0.00406 kcal/mol
same,excess molar enthalpy,[2]; x2 = 0.2999,0.133 ± 0.00406 kcal/mol
same,excess molar enthalpy,[2]; x2 = 0.35,0.134 ± 0.00406 kcal/mol
same,excess molar enthalpy,[2]; x2 = 0.4001,0.131 ± 0.00406 kcal/mol
same,excess molar enthalpy,[2]; x2 = 0.4501,0.126 ± 0.00406 kcal/mol
same,excess molar enthalpy,[2]; x2 = 0.5,0.12 ± 0.00382 kcal/mol
same,excess molar enthalpy,[2]; x2 = 0.55,0.112 ± 0.00359 kcal/mol
same,excess molar enthalpy,[2]; x2 = 0.6001,0.102 ± 0.00311 kcal/mol
same,excess molar enthalpy,[2]; x2 = 0.6501,0.0909 ± 0.00287 kcal/mol
same,excess molar enthalpy,[2]; x2 = 0.7,0.0788 ± 0.00239 kcal/mol
same,excess molar enthalpy,[2]; x2 = 0.7501,0.0665 ± 0.0021 kcal/mol
same,excess molar enthalpy,[2]; x2 = 0.7999,0.0535 ± 0.0017 kcal/mol
same,excess molar enthalpy,[2]; x2 = 0.85,0.0399 ± 0.00127 kcal/mol
same,excess molar enthalpy,[2]; x2 = 0.8999,0.0261 ± 0.00086 kcal/mol
same,excess molar enthalpy,[2]; x2 = 0.95,0.011 ± 0.00055 kcal/mol
CCCCCC [hexane] + CCO,excess molar enthalpy,[2]; x2 = 0.0544,0.0669 ± 0.0021 kcal/mol
same,excess molar enthalpy,[2]; x2 = 0.1056,0.0992 ± 0.00311 kcal/mol
same,excess molar enthalpy,[2]; x2 = 0.1538,0.115 ± 0.00359 kcal/mol
same,excess molar enthalpy,[2]; x2 = 0.1994,0.126 ± 0.00382 kcal/mol
same,excess molar enthalpy,[2]; x2 = 0.2426,0.132 ± 0.00406 kcal/mol
same,excess molar enthalpy,[2]; x2 = 0.2835,0.136 ± 0.0043 kcal/mol
same,excess molar enthalpy,[2]; x2 = 0.3592,0.139 ± 0.0043 kcal/mol
same,excess molar enthalpy,[2]; x2 = 0.4277,0.136 ± 0.0043 kcal/mol
same,excess molar enthalpy,[2]; x2 = 0.4596,0.134 ± 0.0043 kcal/mol
same,excess molar enthalpy,[2]; x2 = 0.49,0.135 ± 0.0043 kcal/mol
same,excess molar enthalpy,[2]; x2 = 0.5191,0.133 ± 0.00406 kcal/mol
same,excess molar enthalpy,[2]; x2 = 0.5992,0.122 ± 0.00382 kcal/mol
same,excess molar enthalpy,[2]; x2 = 0.6472,0.116 ± 0.00359 kcal/mol
same,excess molar enthalpy,[2]; x2 = 0.7125,0.106 ± 0.00335 kcal/mol
same,excess molar enthalpy,[2]; x2 = 0.8064,0.0848 ± 0.00263 kcal/mol
same,excess molar enthalpy,[2]; x2 = 0.8997,0.0535 ± 0.0017 kcal/mol
same,excess molar enthalpy,[2]; x2 = 0.9528,0.0291 ± 0.000956 kcal/mol
CCN(CC)CC [triethylamine],mass density,[1],722.56 ± 0.41 kg/m3
CCN(CC)CC [triethylamine] + CCCCCC,excess molar enthalpy,[2]; x1 = 0.025,0.00134 ± 0.000502 kcal/mol
same,excess molar enthalpy,[2]; x1 = 0.05,0.00368 ± 0.000526 kcal/mol
same,excess molar enthalpy,[2]; x1 = 0.075,0.00468 ± 0.000526 kcal/mol
same,excess molar enthalpy,[2]; x1 = 0.1,0.007 ± 0.000526 kcal/mol
same,excess molar enthalpy,[2]; x1 = 0.15,0.0104 ± 0.000526 kcal/mol
same,excess molar enthalpy,[2]; x1 = 0.2,0.013 ± 0.00055 kcal/mol
same,excess molar enthalpy,[2]; x1 = 0.25,0.0152 ± 0.00055 kcal/mol
same,excess molar enthalpy,[2]; x1 = 0.3,0.0168 ± 0.000574 kcal/mol
same,excess molar enthalpy,[2]; x1 = 0.35,0.0182 ± 0.000621 kcal/mol
same,excess molar enthalpy,[2]; x1 = 0.4,0.019 ± 0.000645 kcal/mol
same,excess molar enthalpy,[2]; x1 = 0.45,0.0193 ± 0.000645 kcal/mol
same,excess molar enthalpy,[2]; x1 = 0.5,0.0196 ± 0.000669 kcal/mol
same,excess molar enthalpy,[2]; x1 = 0.6,0.019 ± 0.000645 kcal/mol
same,excess molar enthalpy,[2]; x1 = 0.65,0.0173 ± 0.000598 kcal/mol
same,excess molar enthalpy,[2]; x1 = 0.7,0.0162 ± 0.000574 kcal/mol
same,excess molar enthalpy,[2]; x1 = 0.75,0.0139 ± 0.00055 kcal/mol
same,excess molar enthalpy,[2]; x1 = 0.8,0.0122 ± 0.00055 kcal/mol
same,excess molar enthalpy,[2]; x1 = 0.85,0.00927 ± 0.000526 kcal/mol
same,excess molar enthalpy,[2]; x1 = 0.9,0.00667 ± 0.000526 kcal/mol
same,excess molar enthalpy,[2]; x1 = 0.95,0.00323 ± 0.000526 kcal/mol
CCN(CC)CC [triethylamine] + CCCCO,excess molar enthalpy,[2]; x2 = 0.0501,-0.0212 ± 0.000717 kcal/mol
same,excess molar enthalpy,[2]; x2 = 0.1,-0.0787 ± 0.00239 kcal/mol
same,excess molar enthalpy,[2]; x2 = 0.1502,-0.13 ± 0.00406 kcal/mol
same,excess molar enthalpy,[2]; x2 = 0.1999,-0.156 ± 0.00478 kcal/mol
same,excess molar enthalpy,[2]; x2 = 0.2536,-0.196 ± 0.00598 kcal/mol
same,excess molar enthalpy,[2]; x2 = 0.3001,-0.228 ± 0.00717 kcal/mol
same,excess molar enthalpy,[2]; x2 = 0.3499,-0.266 ± 0.00813 kcal/mol
same,excess molar enthalpy,[2]; x2 = 0.3999,-0.282 ± 0.00884 kcal/mol
same,excess molar enthalpy,[2]; x2 = 0.4499,-0.304 ± 0.00932 kcal/mol
same,excess molar enthalpy,[2]; x2 = 0.5,-0.322 ± 0.01 kcal/mol
same,excess molar enthalpy,[2]; x2 = 0.5499,-0.331 ± 0.0103 kcal/mol
same,excess molar enthalpy,[2]; x2 = 0.5999,-0.336 ± 0.0103 kcal/mol
same,excess molar enthalpy,[2]; x2 = 0.6499,-0.33 ± 0.0103 kcal/mol
same,excess molar enthalpy,[2]; x2 = 0.7001,-0.315 ± 0.0098 kcal/mol
same,excess molar enthalpy,[2]; x2 = 0.7501,-0.292 ± 0.00908 kcal/mol
same,excess molar enthalpy,[2]; x2 = 0.7999,-0.259 ± 0.00813 kcal/mol
same,excess molar enthalpy,[2]; x2 = 0.85,-0.219 ± 0.00669 kcal/mol
same,excess molar enthalpy,[2]; x2 = 0.8999,-0.166 ± 0.00502 kcal/mol
same,excess molar enthalpy,[2]; x2 = 0.9499,-0.0879 ± 0.00263 kcal/mol
same,excess molar enthalpy,[2]; x2 = 0.9792,-0.0411 ± 0.00131 kcal/mol
CCN(CC)CC [triethylamine] + CCO,excess molar enthalpy,[2]; x2 = 0.1116,-0.0893 ± 0.00287 kcal/mol
same,excess molar enthalpy,[2]; x2 = 0.1621,-0.134 ± 0.0043 kcal/mol
same,excess molar enthalpy,[2]; x2 = 0.2096,-0.163 ± 0.00502 kcal/mol
same,excess molar enthalpy,[2]; x2 = 0.2542,-0.197 ± 0.00598 kcal/mol
same,excess molar enthalpy,[2]; x2 = 0.2963,-0.225 ± 0.00693 kcal/mol
same,excess molar enthalpy,[2]; x2 = 0.3361,-0.243 ± 0.00765 kcal/mol
same,excess molar enthalpy,[2]; x2 = 0.4093,-0.285 ± 0.00884 kcal/mol
same,excess molar enthalpy,[2]; x2 = 0.5056,-0.319 ± 0.0098 kcal/mol
same,excess molar enthalpy,[2]; x2 = 0.5623,-0.329 ± 0.0103 kcal/mol
same,excess molar enthalpy,[2]; x2 = 0.614,-0.33 ± 0.0103 kcal/mol
same,excess molar enthalpy,[2]; x2 = 0.7047,-0.313 ± 0.0098 kcal/mol
same,excess molar enthalpy,[2]; x2 = 0.7991,-0.262 ± 0.00813 kcal/mol
same,excess molar enthalpy,[2]; x2 = 0.8477,-0.219 ± 0.00693 kcal/mol
same,excess molar enthalpy,[2]; x2 = 0.8774,-0.187 ± 0.00574 kcal/mol
same,excess molar enthalpy,[2]; x2 = 0.9052,-0.153 ± 0.00478 kcal/mol
same,excess molar enthalpy,[2]; x2 = 0.9311,-0.116 ± 0.00359 kcal/mol
same,excess molar enthalpy,[2]; x2 = 0.9555,-0.0767 ± 0.00239 kcal/mol
